We go through ten compounds from ChEMBL document CHEMBL1221226 (Nat Chem Biol, 2009).

Assay [1] concerns the target Glucagon-like peptide 1 receptor (Homo sapiens, UniProt P43220). In words: Agonist activity at GLP1R expressed in HEK293 cells assessed as stimulation of cAMP production by luciferase reporter gene assay. Type of assay: functional, cell-based. Background: cAMP levels reflect the balance of adenylyl cyclase and phosphodiesterase activity.
For the next assay, the target named is Glucagon receptor (Homo sapiens, UniProt P47871). Briefly: Agonist activity at GCGR expressed in HEK293 cells assessed as stimulation of cAMP production by luciferase reporter gene assay. The assay is classed as functional, cell-based.
Sequence of Glucagon receptor (P47871 whole entry): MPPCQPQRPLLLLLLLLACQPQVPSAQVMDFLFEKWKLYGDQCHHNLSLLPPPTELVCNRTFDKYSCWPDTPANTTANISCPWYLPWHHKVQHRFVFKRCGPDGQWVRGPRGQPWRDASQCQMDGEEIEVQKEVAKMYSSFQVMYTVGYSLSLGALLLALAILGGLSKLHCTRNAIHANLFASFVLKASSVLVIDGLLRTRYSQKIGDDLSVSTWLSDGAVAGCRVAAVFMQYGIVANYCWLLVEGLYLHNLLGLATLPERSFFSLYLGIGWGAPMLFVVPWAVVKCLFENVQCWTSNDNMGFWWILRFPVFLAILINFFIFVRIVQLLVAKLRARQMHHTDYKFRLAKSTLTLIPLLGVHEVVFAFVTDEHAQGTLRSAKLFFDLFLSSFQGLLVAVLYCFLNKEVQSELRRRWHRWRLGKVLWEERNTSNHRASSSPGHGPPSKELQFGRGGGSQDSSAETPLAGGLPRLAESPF

Residues, ends and D or L forms follow the SMILES beside them.

Sequence of Glucagon-like peptide 1 receptor (P43220 whole entry): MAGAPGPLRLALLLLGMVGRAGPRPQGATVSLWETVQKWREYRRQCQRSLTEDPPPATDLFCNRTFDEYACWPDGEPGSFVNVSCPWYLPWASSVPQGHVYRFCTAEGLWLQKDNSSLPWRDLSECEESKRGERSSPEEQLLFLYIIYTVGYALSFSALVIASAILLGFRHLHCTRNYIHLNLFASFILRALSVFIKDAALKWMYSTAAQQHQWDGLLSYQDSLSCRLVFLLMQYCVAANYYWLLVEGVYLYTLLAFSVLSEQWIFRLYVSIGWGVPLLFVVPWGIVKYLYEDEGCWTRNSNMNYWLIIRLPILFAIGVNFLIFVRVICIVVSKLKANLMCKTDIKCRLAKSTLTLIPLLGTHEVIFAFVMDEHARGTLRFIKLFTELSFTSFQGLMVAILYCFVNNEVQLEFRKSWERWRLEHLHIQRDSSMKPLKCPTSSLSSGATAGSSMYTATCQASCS

`CC[C@H](C)[C@H](NC(=O)[C@H](Cc1ccccc1)NC(=O)[C@H](CCC(=O)O)NC(=O)[C@H](CCCCN)NC(=O)[C@H](C)NC(=O)[C@H](C)NC(=O)[C@H](CCC(N)=O)NC(=O)[C@H](CCC(=O)O)NC(=O)[C@H](CC(=O)O)NC(=O)[C@H](CC(C)C)NC(=O)[C@H](Cc1ccc(O)cc1)NC(=O)[C@H](CCCCN)NC(=O)[C@H](CO)NC(=O)[C@H](Cc1ccc(O)cc1)NC(=O)[C@H](CC(=O)O)NC(=O)[C@H](CO)NC(=O)[C@@H](NC(=O)[C@H](Cc1ccccc1)NC(=O)[C@@H](NC(=O)CNC(=O)[C@H](CCC(=O)O)NC(=O)[C@H](CO)N[C@@H](Cc1cnc[nH]1)C(=O)O)[C@@H](C)O)[C@@H](C)O)C(=O)N[C@@H](C)C(=O)N[C@@H](Cc1c[nH]c2ccccc12)C(=O)N[C@@H](CC(C)C)C(=O)N[C@@H](CCSC)C(=O)N[C@@H](CC(N)=O)C(=O)N[C@H](C(=O)O)[C@@H](C)O`: the figures for the EC50 (in assay [1]; at Glucagon receptor) were 0.028 nM and 2.4 nM, respectively.

For the compound `CC[C@H](C)[C@H](NC(=O)[C@H](Cc1ccccc1)NC(=O)[C@H](CCC(=O)O)NC(=O)[C@H](CCCCN)NC(=O)[C@H](C)NC(=O)[C@H](C)NC(=O)[C@H](CCC(=O)O)NC(=O)[C@H](CCC(=O)O)NC(=O)[C@H](CCC(=O)O)NC(=O)[C@H](CC(C)C)NC(=O)[C@H](Cc1ccc(O)cc1)NC(=O)[C@H](CO)NC(=O)[C@H](CO)NC(=O)[C@@H](NC(=O)[C@H](CC(=O)O)NC(=O)[C@H](CO)NC(=O)[C@@H](NC(=O)[C@H](Cc1ccccc1)NC(=O)[C@@H](NC(=O)CNC(=O)[C@H](CCC(=O)O)NC(=O)[C@H](C)N[C@@H](Cc1cnc[nH]1)C(=O)O)[C@@H](C)O)[C@@H](C)O)C(C)C)C(=O)N[C@@H](C)C(=O)N[C@@H](Cc1c[nH]c2ccccc12)C(=O)N[C@@H](CC(C)C)C(=O)N[C@H](C(=O)N[C@@H](CCCCN)C(=O)NCC(=O)N[C@@H](CCN=C(N)N)C(N)=O)C(C)C`, the EC50 (commonly the midpoint of the concentration-response curve) is 0.011 nM in assay [1] and over 1000 nM at Glucagon receptor.

With `CSCC[C@H](NC(=O)[C@H](CC(C)C)NC(=O)[C@H](Cc1c[nH]c2ccccc12)NC(=O)[C@H](CCC(N)=O)NC(=O)[C@@H](NC(=O)[C@H](Cc1ccccc1)NC(=O)[C@H](CC(=O)O)NC(=O)[C@H](CCCCN)NC(=O)[C@H](C)NC(=O)[C@H](CCCN=C(N)N)NC(=O)[C@H](CCCN=C(N)N)NC(=O)[C@H](CO)NC(=O)[C@H](CC(=O)O)NC(=O)[C@H](CC(C)C)NC(=O)[C@H](Cc1ccc(O)cc1)NC(=O)[C@H](CCCCN)NC(=O)[C@H](CO)NC(=O)[C@H](Cc1ccc(O)cc1)NC(=O)[C@H](CC(=O)O)NC(=O)[C@H](CO)NC(=O)[C@@H](NC(=O)[C@H](Cc1ccccc1)NC(=O)[C@@H](NC(=O)CNC(=O)[C@H](CCC(N)=O)NC(=O)[C@H](CO)N[C@@H](Cc1cnc[nH]1)C(=O)O)[C@@H](C)O)[C@@H](C)O)C(C)C)C(=O)N[C@@H](CC(N)=O)C(=O)N[C@H](C(N)=O)[C@@H](C)O`, the results for the EC50 (in assay [1]; at Glucagon receptor) were 0.13 nM and 0.12 nM, respectively.

`CSCC[C@H](NC(=O)[C@H](CC(C)C)NC(=O)[C@H](Cc1c[nH]c2ccccc12)NC(=O)[C@H](CCC(N)=O)NC(=O)[C@@H](NC(=O)[C@H](Cc1ccccc1)NC(=O)[C@H](CC(=O)O)NC(=O)[C@H](CCC(N)=O)NC(=O)[C@H](C)NC(=O)[C@H](CCCN=C(N)N)NC(=O)[C@H](CCCN=C(N)N)NC(=O)[C@@H]1CCC(=O)NCCCC[C@H](NC(=O)[C@H](CO)NC(=O)[C@H](Cc2ccc(O)cc2)NC(=O)[C@H](CC(=O)O)NC(=O)[C@H](CO)NC(=O)[C@@H](NC(=O)[C@H](Cc2ccccc2)NC(=O)[C@@H](NC(=O)CNC(=O)[C@H](CCC(N)=O)NC(=O)[C@H](CO)N[C@@H](Cc2cnc[nH]2)C(=O)O)[C@@H](C)O)[C@@H](C)O)C(=O)N[C@@H](Cc2ccc(O)cc2)C(=O)N[C@@H](CC(C)C)C(=O)N[C@@H](CC(=O)O)C(=O)N1)C(C)C)C(=O)N[C@@H](CC(N)=O)C(=O)N[C@H](C(=O)O)[C@@H](C)O`: the half-maximal effective concentration (EC50) in assay [1] is 0.051 nM; at Glucagon receptor, 0.046 nM.

Turning to `CSCC[C@H](NC(=O)[C@H](CC(C)C)NC(=O)[C@H](Cc1c[nH]c2ccccc12)NC(=O)[C@H](CCC(N)=O)NC(=O)[C@@H](NC(=O)[C@H](Cc1ccccc1)NC(=O)[C@H](CC(=O)O)NC(=O)[C@@H]1CCCCNC(=O)CC[C@H](NC(=O)[C@H](CC(=O)O)NC(=O)[C@H](CC(C)C)NC(=O)[C@H](Cc2ccc(O)cc2)NC(=O)[C@H](CCCCN)NC(=O)[C@H](CO)NC(=O)[C@H](Cc2ccc(O)cc2)NC(=O)[C@H](CC(=O)O)NC(=O)[C@H](CO)NC(=O)[C@@H](NC(=O)[C@H](Cc2ccccc2)NC(=O)[C@@H](NC(=O)CNC(=O)[C@H](CCC(N)=O)NC(=O)[C@H](CO)N[C@@H](Cc2cnc[nH]2)C(=O)O)[C@@H](C)O)[C@@H](C)O)C(=O)N[C@@H](CCCNC(=N)N)C(=O)N[C@@H](CCCNC(=N)N)C(=O)N[C@@H](C)C(=O)N1)C(C)C)C(=O)N[C@@H](CC(N)=O)C(=O)N[C@H](C(=O)O)[C@@H](C)O`, the figures for the half-maximal effective concentration (EC50) (in assay [1]; at Glucagon receptor) were 0.049 nM and 0.058 nM, respectively.

With `CSCC[C@H](NC(=O)[C@H](CC(C)C)NC(=O)[C@H](Cc1c[nH]c2ccccc12)NC(=O)[C@@H]1CCC(=O)NCCCC[C@H](NC(=O)[C@H](C)NC(=O)[C@H](CCCN=C(N)N)NC(=O)[C@H](CCCN=C(N)N)NC(=O)[C@H](CO)NC(=O)[C@H](CC(=O)O)NC(=O)[C@H](CC(C)C)NC(=O)[C@H](Cc2ccc(O)cc2)NC(=O)[C@H](CCCCN)NC(=O)[C@H](CO)NC(=O)[C@H](Cc2ccc(O)cc2)NC(=O)[C@H](CC(=O)O)NC(=O)[C@H](CO)NC(=O)[C@@H](NC(=O)[C@H](Cc2ccccc2)NC(=O)[C@@H](NC(=O)CNC(=O)[C@H](CCC(N)=O)NC(=O)[C@H](CO)N[C@@H](Cc2cnc[nH]2)C(=O)O)[C@@H](C)O)[C@@H](C)O)C(=O)N[C@@H](CC(=O)O)C(=O)N[C@@H](Cc2ccccc2)C(=O)N[C@@H](C(C)C)C(=O)N1)C(=O)N[C@@H](CC(N)=O)C(=O)N[C@H](C(=O)O)[C@@H](C)O`, the EC50 in assay [1] was found to be 0.24 nM; on Glucagon receptor, 0.078 nM.

Regarding `CSCC[C@@H]1NC(=O)[C@H](CC(C)C)NC(=O)[C@H](Cc2c[nH]c3ccccc23)NC(=O)[C@@H](NC(=O)[C@@H](NC(=O)[C@H](Cc2ccccc2)NC(=O)[C@H](CC(=O)O)NC(=O)[C@H](CCC(N)=O)NC(=O)[C@H](C)NC(=O)[C@H](CCCN=C(N)N)NC(=O)[C@H](CCCN=C(N)N)NC(=O)[C@H](CO)NC(=O)[C@H](CC(=O)O)NC(=O)[C@H](CC(C)C)NC(=O)[C@H](Cc2ccc(O)cc2)NC(=O)[C@H](CCCCN)NC(=O)[C@H](CO)NC(=O)[C@H](Cc2ccc(O)cc2)NC(=O)[C@H](CC(=O)O)NC(=O)[C@H](CO)NC(=O)[C@@H](NC(=O)[C@H](Cc2ccccc2)NC(=O)[C@@H](NC(=O)CNC(=O)[C@H](CCC(N)=O)NC(=O)[C@H](CO)N[C@@H](Cc2cnc[nH]2)C(=O)O)[C@@H](C)O)[C@@H](C)O)C(C)C)CCC(=O)NCCCC[C@@H](C(=O)N[C@H](C(=O)O)[C@@H](C)O)NC1=O`, the EC50 in assay [1] amounted to 0.18 nM; at Glucagon receptor it was 0.076 nM.

In the case of `CSCC[C@H](NC(=O)[C@H](CC(C)C)NC(=O)[C@H](Cc1c[nH]c2ccccc12)NC(=O)[C@H](CCC(N)=O)NC(=O)[C@@H](NC(=O)[C@H](Cc1ccccc1)NC(=O)[C@H](CC(=O)O)NC(=O)[C@H](CCC(N)=O)NC(=O)[C@H](C)NC(=O)[C@H](CCCNC(=N)N)NC(=O)[C@H](CCCNC(=N)N)NC(=O)[C@H](CCC(=O)O)NC(=O)[C@H](CCC(=O)O)NC(=O)[C@H](CC(C)C)NC(=O)[C@H](Cc1ccc(O)cc1)NC(=O)[C@H](CO)NC(=O)[C@H](CO)NC(=O)[C@@H](NC(=O)[C@H](CC(=O)O)NC(=O)[C@H](CO)NC(=O)[C@@H](NC(=O)[C@H](Cc1ccccc1)NC(=O)[C@@H](NC(=O)CNC(=O)[C@H](CCC(=O)O)NC(=O)[C@H](C)NC(=O)[C@@H](N)Cc1cnc[nH]1)[C@@H](C)O)[C@@H](C)O)C(C)C)C(C)C)C(=O)N[C@@H](CC(N)=O)C(=O)N[C@H](C(=O)O)[C@@H](C)O` (H-HAEGTFTSDVSSYLEERRAQDFVQWLMNT-OH), the figures for the EC50 (in assay [1] (hek293); on Glucagon receptor (hek293)) were 0.18 nM and 50 nM, respectively.

Turning to `CC[C@H](C)[C@H](NC(=O)[C@H](Cc1ccccc1)NC(=O)[C@H](CCC(=O)O)NC(=O)[C@H](CCCCN)NC(=O)[C@H](C)NC(=O)[C@H](C)NC(=O)[C@H](CCC(N)=O)NC(=O)[C@H](CCC(=O)O)NC(=O)[C@H](CC(=O)O)NC(=O)[C@H](CC(C)C)NC(=O)[C@H](Cc1ccc(O)cc1)NC(=O)[C@H](CCCCN)NC(=O)[C@H](CO)NC(=O)[C@H](Cc1ccc(O)cc1)NC(=O)[C@H](CC(=O)O)NC(=O)[C@H](CO)NC(=O)[C@@H](NC(=O)[C@H](Cc1ccccc1)NC(=O)[C@@H](NC(=O)CNC(=O)[C@H](CCC(N)=O)NC(=O)[C@H](CO)NC(=O)[C@@H](N)Cc1cnc[nH]1)[C@@H](C)O)[C@@H](C)O)C(=O)N[C@@H](C)C(=O)N[C@@H](Cc1c[nH]c2ccccc12)C(=O)N[C@@H](CC(C)C)C(=O)N[C@@H](CCSC)C(=O)N[C@@H](CC(N)=O)C(=O)N[C@H](C(=O)O)[C@@H](C)O` (H-HSQGTFTSDYSKYLDEQAAKEFIAWLMNT-OH), the results for the EC50 (in assay [1] (hek293); on Glucagon receptor (hek293)) were 0.026 nM and 0.068 nM, respectively.

For the compound `CC[C@H](C)[C@H](NC(=O)[C@H](Cc1ccccc1)NC(=O)[C@H](CCC(=O)O)NC(=O)[C@H](CCCCN)NC(=O)[C@H](C)NC(=O)[C@H](C)NC(=O)[C@H](CCC(N)=O)NC(=O)[C@H](CCC(=O)O)NC(=O)[C@H](CC(=O)O)NC(=O)[C@H](CC(C)C)NC(=O)[C@H](Cc1ccc(O)cc1)NC(=O)[C@H](CCCCN)NC(=O)[C@H](CO)NC(=O)[C@H](Cc1ccc(O)cc1)NC(=O)[C@H](CC(=O)O)NC(=O)[C@H](CO)NC(=O)[C@@H](NC(=O)[C@H](Cc1ccccc1)NC(=O)[C@@H](NC(=O)CNC(=O)[C@H](CCC(N)=O)NC(=O)[C@H](CO)NC(=O)[C@@H](N)Cc1cnc[nH]1)[C@@H](C)O)[C@@H](C)O)C(=O)N[C@@H](C)C(=O)N[C@@H](Cc1c[nH]c2ccccc12)C(=O)N[C@@H](CC(C)C)C(=O)N[C@H](C(=O)N[C@@H](CCCCN)C(=O)NCC(=O)O)C(C)C` (H-HSQGTFTSDYSKYLDEQAAKEFIAWLVKG-OH), the figures for the EC50 (in assay [1] (hek293); on Glucagon receptor (hek293)) were 0.015 nM and 0.47 nM, respectively.
